Results published in ChEMBL document CHEMBL1146886, “Antibacterial activity of pyrrolopyridine-substituted oxazolidinones: synthesis and in vitro SAR of various C-5 acetamide replacements” (2006).
In brackets after ≈: the same amount, converted by molar mass.

What was measured:
Type in all cases: functional
Enterococcus faecium = assay: Antibacterial activity against gram positive vancomycin-resistant Enterococcus faecium OC 3312
Enterococcus faecalis = assay: Antibacterial activity against gram positive vancomycin-susceptible Enterococcus faecalis ATCC 29212
Staphylococcus aureus [1] = assay: Antibacterial activity against gram positive methicillin-resistant Staphylococcus aureus OC 2878
Staphylococcus aureus [2] = assay: Antibacterial activity against gram positive methicillin-susceptible Staphylococcus aureus Smith OC 4172 by broth microdilution assay
Staphylococcus aureus [3] = assay: Antibacterial activity against gram positive Staphylococcus aureus Smith OC 4172 in presence of 50% mouse serum

Row | SMILES | MIC (Enterococcus faecium) [µg/mL] | MIC (Enterococcus faecalis) [µg/mL] | MIC (Staphylococcus aureus [1]) [µg/mL] | MIC (Staphylococcus aureus [2]) [µg/mL] | MIC (Staphylococcus aureus [3]) [µg/mL]
1 | CC(=O)NC[C@H]1CN(c2ccc(-n3cc4cccnc4c3)c(F)c2)C(=O)O1 | 1 (≈ 2.71 µM) | 1 (≈ 2.71 µM) | 0.5 (≈ 1.36 µM) | 1 (≈ 2.71 µM) | 2
2 | CS/C(=N/C#N)NC[C@H]1CN(c2ccc(-n3cc4cccnc4c3)c(F)c2)C(=O)O1 | 8 (≈ 18.8 µM) | 8 (≈ 18.8 µM) | 8 (≈ 18.8 µM) | 8 (≈ 18.8 µM) | 64
3 | O=C1O[C@@H](COc2cnccn2)CN1c1ccc(-n2cc3cccnc3c2)c(F)c1 | 64 (≈ 158 µM) | 64 (≈ 158 µM) | 8 (≈ 19.7 µM) | > 32 | > 32
4 | O=C1O[C@@H](COc2ccon2)CN1c1ccc(-n2cc3cccnc3c2)c(F)c1 | 8 (≈ 20.3 µM) | 16 (≈ 40.6 µM) | 4 (≈ 10.1 µM) | 8 (≈ 20.3 µM) | 64
5 | O=C1O[C@@H](COc2cnsn2)CN1c1ccc(-n2cc3cccnc3c2)c(F)c1 | 4 (≈ 9.72 µM) | 4 (≈ 9.72 µM) | 2 (≈ 4.86 µM) | 8 (≈ 19.4 µM) | 16
6 | COC(=O)NC[C@H]1CN(c2ccc(N3Cc4cccnc4C3)c(F)c2)C(=O)O1 | 2 (≈ 5.18 µM) | 4 (≈ 10.4 µM) | 2 (≈ 5.18 µM) | 4 (≈ 10.4 µM) | 16
7 | O=C1O[C@@H](COc2ccccn2)CN1c1ccc(N2Cc3cccnc3C2)c(F)c1 | > 64 | > 64 | 32 (≈ 78.7 µM) | > 128 | > 128
8 | COC(=O)NC[C@H]1CN(c2ccc(-n3cc4cccnc4c3)c(F)c2)C(=O)O1 | 16 (≈ 41.6 µM) | 16 (≈ 41.6 µM) | 16 (≈ 41.6 µM) | 16 (≈ 41.6 µM) | 32
9 | CS(=O)(=O)NC[C@H]1CN(c2ccc(N3Cc4cccnc4C3)c(F)c2)C(=O)O1 | 4 (≈ 9.84 µM) | 8 (≈ 19.7 µM) | 2 (≈ 4.92 µM) | 4 (≈ 9.84 µM) | 16
10 | O=C1O[C@@H](COc2ccon2)CN1c1ccc(N2Cc3cccnc3C2)c(F)c1 | 16 (≈ 40.4 µM) | > 32 | 8 (≈ 20.2 µM) | > 32 | > 64
11 | N#Cc1ccc(OC[C@H]2CN(c3ccc(-n4cc5cccnc5c4)c(F)c3)C(=O)O2)nc1 | > 64 | > 32 | > 64 | > 128 | > 128
12 | Cc1cccc(OC[C@H]2CN(c3ccc(N4Cc5cccnc5C4)c(F)c3)C(=O)O2)n1 | > 64 | > 32 | > 128 | > 128 | > 128
13 | O=C1O[C@@H](C/N=C/NN[N+](=O)[O-])CN1c1ccc(N2Cc3cccnc3C2)c(F)c1 | 8 (≈ 19.3 µM) | 16 (≈ 38.5 µM) | 8 (≈ 19.3 µM) | 8 (≈ 19.3 µM) | 16
14 | O=C(NC[C@H]1CN(c2ccc(N3Cc4cccnc4C3)c(F)c2)C(=O)O1)C1CCC1 | 8 (≈ 19.5 µM) | 8 (≈ 19.5 µM) | 4 (≈ 9.75 µM) | 8 (≈ 19.5 µM) | 32
15 | C/C(=N\C#N)NC[C@H]1CN(c2ccc(N3Cc4cccnc4C3)c(F)c2)C(=O)O1 | 4 (≈ 10.1 µM) | 4 (≈ 10.1 µM) | 2 (≈ 5.07 µM) | 2 (≈ 5.07 µM) | 8
16 | O=C(CO)NC[C@H]1CN(c2ccc(N3Cc4cccnc4C3)c(F)c2)C(=O)O1 | 16 (≈ 41.4 µM) | 32 (≈ 82.8 µM) | 16 (≈ 41.4 µM) | 32 (≈ 82.8 µM) | 32
17 | CCC(=O)NC[C@H]1CN(c2ccc(-n3cc4cccnc4c3)c(F)c2)C(=O)O1 | 16 (≈ 41.8 µM) | 16 (≈ 41.8 µM) | 16 (≈ 41.8 µM) | 32 (≈ 83.7 µM) | 32

Row | SMILES | MIC (Enterococcus faecium) [µg/mL] | MIC (Enterococcus faecalis) [µg/mL] | MIC (Staphylococcus aureus [1]) [µg/mL] | MIC (Staphylococcus aureus [2]) [µg/mL] | MIC (Staphylococcus aureus [3]) [µg/mL]
18 | O=C1O[C@@H](Cn2ccccc2=O)CN1c1ccc(N2Cc3cccnc3C2)c(F)c1 | > 32 | > 32 | 16 (≈ 39.4 µM) | > 32 | 64
19 | CCC(=O)NC[C@H]1CN(c2ccc(N3Cc4cccnc4C3)c(F)c2)C(=O)O1 | 2 (≈ 5.2 µM) | 2 (≈ 5.2 µM) | 1 (≈ 2.6 µM) | 2 (≈ 5.2 µM) | 4
20 | O=C(NC[C@H]1CN(c2ccc(N3Cc4cccnc4C3)c(F)c2)C(=O)O1)C1CC1 | 2 (≈ 5.05 µM) | 2 (≈ 5.05 µM) | 2 (≈ 5.05 µM) | 2 (≈ 5.05 µM) | 4
21 | CC(=O)OCC(=O)NC[C@H]1CN(c2ccc(N3Cc4cccnc4C3)c(F)c2)C(=O)O1 | 16 (≈ 37.3 µM) | 16 (≈ 37.3 µM) | 128 (≈ 299 µM) | 32 (≈ 74.7 µM) | 32
22 | CCOC(=O)NC[C@H]1CN(c2ccc(N3Cc4cccnc4C3)c(F)c2)C(=O)O1 | 8 (≈ 20 µM) | 8 (≈ 20 µM) | 4 (≈ 9.99 µM) | 8 (≈ 20 µM) | 64
23 | O=C1O[C@@H](COc2cnccn2)CN1c1ccc(N2Cc3cccnc3C2)c(F)c1 | > 32 | > 32 | > 32 | > 32 | > 32
24 | O=C1O[C@@H](Cn2ccccc2=O)CN1c1ccc(-n2cc3cccnc3c2)c(F)c1 | > 128 | > 128 | > 128 | > 128 | > 128
25 | CS(=O)(=O)NC[C@H]1CN(c2ccc(-n3cc4cccnc4c3)c(F)c2)C(=O)O1 | > 64 | > 64 | > 64 | > 64 | > 64
26 | O=C(NC[C@H]1CN(c2ccc(-n3cc4cccnc4c3)c(F)c2)C(=O)O1)C1CC1 | 8 (≈ 20.3 µM) | 16 (≈ 40.6 µM) | 8 (≈ 20.3 µM) | 8 (≈ 20.3 µM) | 16
27 | O=C1O[C@@H](COc2cnsn2)CN1c1ccc(N2Cc3cccnc3C2)c(F)c1 | 2 (≈ 4.84 µM) | 8 (≈ 19.4 µM) | 1 (≈ 2.42 µM) | 2 (≈ 4.84 µM) | 8
28 | CS/C(=N\C#N)NC[C@H]1CN(c2ccc(N3Cc4cccnc4C3)c(F)c2)C(=O)O1 | 2 (≈ 4.69 µM) | 4 (≈ 9.38 µM) | 2 (≈ 4.69 µM) | 2 (≈ 4.69 µM) | 8
29 | N#Cc1ccc(OC[C@H]2CN(c3ccc(N4Cc5cccnc5C4)c(F)c3)C(=O)O2)nc1 | > 64 | > 16 | > 64 | > 64 | > 64
30 | O=C1O[C@@H](C/N=C/NN[N+](=O)[O-])CN1c1ccc(-n2cc3cccnc3c2)c(F)c1 | 32 (≈ 77.4 µM) | 32 (≈ 77.4 µM) | > 128 | 64 (≈ 155 µM) | 128
31 | Cc1cccc(OC[C@H]2CN(c3ccc(-n4cc5cccnc5c4)c(F)c3)C(=O)O2)n1 | > 128 | > 64 | > 64 | > 128 | > 128
32 | CC(=O)NC[C@H]1CN(c2ccc(N3Cc4cccnc4C3)c(F)c2)C(=O)O1 | 0.5 (≈ 1.35 µM) | 0.5 (≈ 1.35 µM) | 0.25 (≈ 0.675 µM) | 0.5 (≈ 1.35 µM) | 1
33 | CC(=O)NC[C@H]1CN(c2ccc(N3CCOCC3)c(F)c2)C(=O)O1 [LINEZOLID] | 2 (≈ 5.93 µM) | – | 1 (≈ 2.96 µM) | – | –
